# Measured values published in US11053218B2, “3-(1-oxoisoindolin-2-yl)piperidine-2,6-dione derivatives and uses thereof” (Novartis AG, priority 2017, dated 2021).
# “Also recorded” adds a separate entry of the source. Like-named read-outs stand apart in the source and are kept apart here.
# Key:
# Type in all cases: cell-based
# [1] = test system: primary human regulatory T cells
# [2] = test system: primary human regulatory T cells; test: In vitro suppression of the proliferation of CD4+ T cells by expanded Treg cells; settings: five independent donors, vs DMSO, FIG. 3
# Description: (§1) Human buffy coats were obtained from BioreclamationIVT, in the USA. CD4+ T cells were isolated from said buffy coats using the RosetteSep Human CD4+ T cell enrichment Cocktail (Stemcell technologies, USA) and gradient centrifugation over Ficoll Paque Plus (GE HealthCare LifeSciences, USA) as per manufacturer's recommendations. Cells were resuspended in RPMI medium supplemented with 1% penicillin-Streptomycin solution, 10% Fetal Bovine Serum, HEPES (10 mM), MEM NEAA ([…]), sodium pyruvate (1 mM) (all supplements from Thermo Fisher Scientific, USA), thereafter referred to as complete RPMI (cRPMI), and rested overnight at 37° C., 5% CO2 in the presence of 2 U/mL rhIL-2 (Proleukin, Novartis). Cells were collected and resuspended in autoMACS Running Buffer supplemented with BSA (Miltenyi Biotec, USA) and labelled using CD4-FITC antibody (clone RPA-T4), CD25-APC antibody (clone M-A251) (Biolegend) and CD25 Microbeads (Miltenyi Biotec, USA). CD25-enriched cells were then isolated using the autoMACS Pro Separator. […]
# Primary human PBMCs were obtained from freshly prepared buffy coats (BioReclamationIVT) using gradient centrifugation over Ficoll Paque Plus as per manufacturer's recommendations. […] Proliferation was assessed in each population as the proportion of cells having diluted CFSE. Suppression was assessed for each condition in comparison to the responders plated alone.
# [3] = target: IKZF1 (Homo sapiens, UniProt Q13422+Q96SW2); test: Prolabel quantification of IKZF1 protein levels in 293GT cells; settings: Prolabel assay, read-out: IKZF1 EC50
# Chain of IKZF1 (Q13422 whole entry): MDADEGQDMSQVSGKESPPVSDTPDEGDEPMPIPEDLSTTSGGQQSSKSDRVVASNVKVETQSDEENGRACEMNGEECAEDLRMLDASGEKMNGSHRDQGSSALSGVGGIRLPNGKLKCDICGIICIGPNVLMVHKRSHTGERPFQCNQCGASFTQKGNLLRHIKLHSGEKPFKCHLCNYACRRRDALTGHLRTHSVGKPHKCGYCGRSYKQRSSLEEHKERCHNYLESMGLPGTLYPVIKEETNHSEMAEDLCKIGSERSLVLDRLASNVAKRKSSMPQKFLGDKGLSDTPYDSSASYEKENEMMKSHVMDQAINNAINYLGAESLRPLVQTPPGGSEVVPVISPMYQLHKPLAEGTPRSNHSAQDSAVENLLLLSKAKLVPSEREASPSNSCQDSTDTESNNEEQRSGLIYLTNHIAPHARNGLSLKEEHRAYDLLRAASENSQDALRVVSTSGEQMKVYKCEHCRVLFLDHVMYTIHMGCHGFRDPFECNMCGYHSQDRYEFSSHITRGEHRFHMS
# Chain of IKZF1 (Q96SW2 whole entry): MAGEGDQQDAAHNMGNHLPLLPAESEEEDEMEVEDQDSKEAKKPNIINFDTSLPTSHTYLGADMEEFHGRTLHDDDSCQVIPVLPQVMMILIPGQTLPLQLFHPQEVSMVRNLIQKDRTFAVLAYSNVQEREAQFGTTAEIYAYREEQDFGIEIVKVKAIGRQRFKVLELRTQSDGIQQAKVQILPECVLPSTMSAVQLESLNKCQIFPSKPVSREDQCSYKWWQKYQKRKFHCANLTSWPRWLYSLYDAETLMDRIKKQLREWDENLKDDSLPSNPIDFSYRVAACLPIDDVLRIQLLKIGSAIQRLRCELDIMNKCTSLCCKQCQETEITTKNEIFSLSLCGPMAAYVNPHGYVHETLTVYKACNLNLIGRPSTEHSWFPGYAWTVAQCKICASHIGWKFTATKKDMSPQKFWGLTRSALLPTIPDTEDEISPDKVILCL
# Chain of IKZF1 (Q16531 whole entry partner): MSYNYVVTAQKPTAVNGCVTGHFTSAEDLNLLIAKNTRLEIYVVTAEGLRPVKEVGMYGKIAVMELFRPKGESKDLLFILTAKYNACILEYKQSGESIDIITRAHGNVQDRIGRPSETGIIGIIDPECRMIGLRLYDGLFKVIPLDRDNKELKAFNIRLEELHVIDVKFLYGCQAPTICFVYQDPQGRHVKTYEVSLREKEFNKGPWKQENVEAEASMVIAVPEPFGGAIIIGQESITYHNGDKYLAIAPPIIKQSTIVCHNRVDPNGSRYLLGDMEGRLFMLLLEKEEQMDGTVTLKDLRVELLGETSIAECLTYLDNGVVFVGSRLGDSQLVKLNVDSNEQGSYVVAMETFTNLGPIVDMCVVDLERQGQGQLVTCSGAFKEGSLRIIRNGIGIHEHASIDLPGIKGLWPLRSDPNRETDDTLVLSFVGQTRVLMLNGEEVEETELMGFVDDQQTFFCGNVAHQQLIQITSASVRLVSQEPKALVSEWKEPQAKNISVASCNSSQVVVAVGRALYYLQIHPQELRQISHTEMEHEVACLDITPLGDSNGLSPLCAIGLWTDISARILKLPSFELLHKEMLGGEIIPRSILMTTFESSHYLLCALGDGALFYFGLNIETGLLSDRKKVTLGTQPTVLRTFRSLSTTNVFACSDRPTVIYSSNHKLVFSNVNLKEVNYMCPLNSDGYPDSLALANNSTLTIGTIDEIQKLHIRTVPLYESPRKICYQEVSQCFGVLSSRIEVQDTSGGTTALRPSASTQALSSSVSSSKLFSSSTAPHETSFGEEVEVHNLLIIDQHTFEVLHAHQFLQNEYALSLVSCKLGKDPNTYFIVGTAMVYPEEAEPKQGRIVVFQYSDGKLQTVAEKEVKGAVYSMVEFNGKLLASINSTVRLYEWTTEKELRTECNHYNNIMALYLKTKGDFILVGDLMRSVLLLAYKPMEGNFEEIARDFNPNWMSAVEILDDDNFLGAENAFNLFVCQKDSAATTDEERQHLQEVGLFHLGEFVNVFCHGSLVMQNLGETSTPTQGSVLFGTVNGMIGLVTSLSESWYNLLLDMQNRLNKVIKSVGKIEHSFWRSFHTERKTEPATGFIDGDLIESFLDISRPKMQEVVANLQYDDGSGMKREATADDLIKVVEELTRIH
# [4] = test system: primary human regulatory T cells; test: Expansion of purified primary human Treg cells in the presence of compound; settings: FIG. 1
# Description: as §1, with “Separator. A highly purified population of Treg cells was then obtained by further sorting CD4+CD25Hi cells using a Sony SH800 cell sorter. The resulting Treg cell population was routinely above 90% pure according to FOXP3 expression.” for “Separator.”
# Cell were collected and counted and the fold expansion was calculated as (number of cells recovered)/(number of cells plated). […]
# [5] = target: IKZF2 (Homo sapiens, UniProt Q96SW2+Q9UKS7); test: Prolabel quantification of IKZF2 protein levels in 293GT cells; settings: for inhibition at 10 µM: 24 h, read-out: IKZF2 % protein reduction at 10 μM, 24 h; for DC50: Prolabel assay, read-out: IKZF2 EC50
# Chain of IKZF2 (Q9UKS7 whole entry): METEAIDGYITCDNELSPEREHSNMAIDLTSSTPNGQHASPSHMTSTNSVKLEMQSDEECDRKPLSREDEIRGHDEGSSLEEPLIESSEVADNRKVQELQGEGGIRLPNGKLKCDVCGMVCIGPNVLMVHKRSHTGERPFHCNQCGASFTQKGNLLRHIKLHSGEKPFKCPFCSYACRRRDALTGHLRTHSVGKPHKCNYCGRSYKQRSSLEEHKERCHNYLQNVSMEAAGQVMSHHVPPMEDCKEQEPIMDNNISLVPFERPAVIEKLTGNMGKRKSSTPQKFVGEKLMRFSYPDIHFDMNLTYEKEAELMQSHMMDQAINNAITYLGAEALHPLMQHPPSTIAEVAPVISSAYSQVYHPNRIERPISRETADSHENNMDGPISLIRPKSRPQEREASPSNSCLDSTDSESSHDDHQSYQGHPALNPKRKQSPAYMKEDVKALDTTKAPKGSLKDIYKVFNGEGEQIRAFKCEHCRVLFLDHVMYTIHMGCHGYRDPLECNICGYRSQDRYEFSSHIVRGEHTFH
# Chain of IKZF2 (Q96SW2 whole entry): as the sequence (Q96SW2 whole entry) above
# Chain of IKZF2 (Q16531 whole entry partner): as the sequence (Q16531 whole entry partner) above
# [6] = target: GSPT1 (Homo sapiens, UniProt P15170+Q96SW2); test: Prolabel quantification of GSPT1 protein levels in 293GT cells; settings: Prolabel assay, read-out: GSPT1 EC50
# Chain of GSPT1 (P15170 whole entry): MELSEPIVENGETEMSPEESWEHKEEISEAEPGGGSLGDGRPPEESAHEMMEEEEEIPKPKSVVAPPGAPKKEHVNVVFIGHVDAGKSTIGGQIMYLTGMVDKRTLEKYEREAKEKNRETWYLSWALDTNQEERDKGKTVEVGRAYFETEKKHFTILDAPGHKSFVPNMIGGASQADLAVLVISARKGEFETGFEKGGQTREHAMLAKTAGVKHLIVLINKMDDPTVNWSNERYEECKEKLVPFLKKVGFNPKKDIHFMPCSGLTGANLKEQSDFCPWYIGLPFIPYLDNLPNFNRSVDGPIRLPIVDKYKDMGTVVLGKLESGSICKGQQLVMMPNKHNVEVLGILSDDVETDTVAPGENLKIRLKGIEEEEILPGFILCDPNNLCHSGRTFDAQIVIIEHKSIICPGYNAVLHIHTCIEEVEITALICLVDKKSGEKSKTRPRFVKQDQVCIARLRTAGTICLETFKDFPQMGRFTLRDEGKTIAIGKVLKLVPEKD
# Chain of GSPT1 (Q96SW2 whole entry): as the sequence (Q96SW2 whole entry) above
# Chain of GSPT1 (Q16531 whole entry partner): as the sequence (Q16531 whole entry partner) above
Compound,Increase of the proportion of cells producing IL-2 (median) [1] [fold],In vitro suppression of the proliferation of CD4+ T cells by expanded Treg cells [2],DC50 [3] [µM],"Treg cells expand less in the presence of compound ([4]; expanded in vitro 12 days, vs DMSO, compound 10 μM) [%]","Expansion of purified Treg cells as compared to the control ([4]; purified primary human Treg cells, DMSO control)",IKZF2 protein levels as compared to the control (DMSO) [5],inhibition at 10 µM [5] [%],DC50 ([5]; 293GT cells) [µM],DC50 [6] [µM],"inhibition at 10 µM ([5]; 10 μM, 293GT cells) [%]"
"O=C1CCC(N2Cc3cc(C4CCN(Cc5ccccc5)CC4)ccc3C2=O)C(=O)N1 (centres unmarked) [Compound I-57, 3-(5-(1-benzylpiperidin-4-yl)-1-oxoisoindolin-2-yl)piperidine-2,6-dione]",2.16,impaired; also recorded: less able to repress,> 50,30,impaired,decreased,70,0.009,> 50,
"O=C1CCC(N2Cc3cc(C4CCN(Cc5ccc6ccc(F)cc6n5)CC4)ccc3C2=O)C(=O)N1 (centres unmarked) [Compound I-232, 3-(5-(1-((7-fluoroquinolin-2-yl)methyl)piperidin-4-yl)-1-oxoisoindolin-2-yl)piperidine-2,6-dione]",,,> 30,,,,,0.018,> 30,70
"CN(C)S(=O)(=O)c1ccc(CN2CCC(c3ccc4c(c3)CN(C3CCC(=O)NC3=O)C4=O)CC2)cc1 (centres unmarked) [Compound I-237, 4-((4-(2-(2,6-dioxopiperidin-3-yl)-1-oxoisoindolin-5-yl)piperidin-1-yl)methyl)-N,N-dimethylbenzenesulfonamide]",,,> 30,,,,,0.02,> 30,70
"O=C1CCC(N2Cc3cc(C4CCN(Cc5ccc6nccnc6c5)CC4)ccc3C2=O)C(=O)N1 (centres unmarked) [Compound I-239, 3-(1-oxo-5-(1-(quinoxalin-6-ylmethyl)piperidin-4-yl)isoindolin-2-yl)piperidine-2,6-dione]",,,> 30,,,,,0.007,> 30,70
"Cc1onc(-c2ccccc2)c1CN1CCC(c2ccc3c(c2)CN(C2CCC(=O)NC2=O)C3=O)CC1 (centres unmarked) [Compound I-251, 3-(5-(1-((5-methyl-3-phenylisoxazol-4-yl)methyl)piperidin-4-yl)-1-oxoisoindolin-2-yl)piperidine-2,6-dione]",,,> 30,,,,,0.021,> 30,60
"O=C1CCC(N2Cc3cc(C4CCN(CC(F)(F)F)CC4)ccc3C2=O)C(=O)N1 (centres unmarked) [Compound I-253, 3-(1-oxo-5-(1-(2,2,2-trifluoroethyl)piperidin-4-yl)isoindolin-2-yl)piperidine-2,6-dione]",,,> 50,,,,,> 50,> 50,0
